Laboratory results reported in US20240343704A1, “HALO-SUBSTITUTED AMINO PYRIDINE COMPOUNDS AS INHIBITORS OF THE HAEMATOPOIETIC PROGENITOR KINASE 1 (HPK1)” (priority 2021, published 2024).

Columns and labels:
[1] = target: Lck (h) (Homo sapiens, UniProt P06239); assay: Lck Human  Kinase Enzymatic Radiometric Assay; assay type: biochemical; details: read-out: Lck IC50 nM Range*
Procedure: Lck (h) is incubated with 50 mM Tris pH 7.5, 0.1 mM EGTA, 0.1 mM Na3VO4, 250 uM KVEKIGEGTYGVVYK (Cdc2 peptide), 10 mM MgAcetate and [gamma-33P]-ATP (specific activity and concentration as required). The reaction is initiated by the addition of the Mg/ATP mix. After incubation for 40 minutes at RT, the reaction is stopped by the addition of phosphoric acid to a concentration of 0.5%. 10 uL of the reaction is then spotted onto a P30 filtermat and washed four times for 4 minutes in 0.425% phosphoric acid and once in methanol prior to drying and scintillation counting. For more details on the kinase assay procedures see: Gao, Y. et. al.; Biochem J., 451 (2): 313-328, 2013.

[2] = target: T1, Recombinant (1-346) HPK1 (h) (Homo sapiens, UniProt Q92918); assay: HPK1 Human STE Kinase Enzymatic Radiometric Assay; assay type: biochemical; details: read-out: HPK1 IC50 nM Range*
T1 construct: Recombinant (1-346) HPK1 (h) is incubated with 8 mM MOPS pH 7.0
T1 sequence (Q92918 1-346): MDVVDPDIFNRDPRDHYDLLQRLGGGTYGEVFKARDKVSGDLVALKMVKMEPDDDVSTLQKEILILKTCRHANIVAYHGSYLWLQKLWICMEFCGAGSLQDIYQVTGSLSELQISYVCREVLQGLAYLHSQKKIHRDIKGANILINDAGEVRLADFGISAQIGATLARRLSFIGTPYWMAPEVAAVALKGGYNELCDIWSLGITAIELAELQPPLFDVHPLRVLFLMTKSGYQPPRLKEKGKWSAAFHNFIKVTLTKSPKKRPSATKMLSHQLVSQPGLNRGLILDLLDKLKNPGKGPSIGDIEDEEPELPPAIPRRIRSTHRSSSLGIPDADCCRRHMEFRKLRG
Procedure: A stock solution of 10 mM of test compound is prepared in DMSO. The compound plate was prepared by 3-fold and 9-point serial dilutions. […] The reaction is initiated by The addition of the Mg/ATP mix. After incubation for 40 minutes at RT, the reaction is stopped by the addition of phosphoric acid to a concentration of 0.5%.

Lck (h), sequence (P06239 whole entry): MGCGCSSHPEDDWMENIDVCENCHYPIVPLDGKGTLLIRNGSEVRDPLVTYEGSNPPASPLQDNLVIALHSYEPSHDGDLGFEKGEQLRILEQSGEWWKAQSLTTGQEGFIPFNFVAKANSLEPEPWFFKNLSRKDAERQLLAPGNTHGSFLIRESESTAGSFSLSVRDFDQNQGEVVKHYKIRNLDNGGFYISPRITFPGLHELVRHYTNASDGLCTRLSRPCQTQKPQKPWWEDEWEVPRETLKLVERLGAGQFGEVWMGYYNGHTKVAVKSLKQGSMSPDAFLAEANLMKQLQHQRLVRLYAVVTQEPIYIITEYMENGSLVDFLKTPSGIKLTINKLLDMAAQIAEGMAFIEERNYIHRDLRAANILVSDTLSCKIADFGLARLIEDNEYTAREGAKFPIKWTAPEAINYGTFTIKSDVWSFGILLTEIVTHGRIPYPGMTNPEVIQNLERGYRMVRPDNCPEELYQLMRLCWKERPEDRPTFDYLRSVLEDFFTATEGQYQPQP

| Compound | IC50 [1] [nM] | IC50 [2] [nM] |
| --- | --- | --- |
| CO[C@H](C)CN1CCN(c2ccc(-c3cc(-c4ccc5c(c4)CCNC5=O)c(N)nc3F)cc2)CC1 [I-25, (R)-6-(2-amino-6-fluoro-5-(4-(4-(2-methoxypropyl)piperazin-1-yl)phenyl)pyridin-3-yl)-3,4-dihydroisoquinolin-1(2H)-one] | > 1000 | 0.1 to 10 |
| Nc1nc(F)c(-c2ccc(N3CCOCC3)cn2)cc1-c1ccc2c(c1)CCNC2=O [I-26, 6-(6′-amino-2′-fluoro-5-morpholino-[2,3′-bipyridin]-5′-yl)-3,4-dihydroisoquinolin-1(2H)-one] | > 1000 | 0.1 to 10 |
| CN1CCN(c2ccc(-c3cc(-c4ccc5c(c4)CCNC5=O)c(N)nc3F)nc2)CC1 [I-27, 6-(6′-amino-2′-fluoro-5-(4methylpiperazin-1-yl)-[2,3′-bipyridin]-5′-yl)-3,4dihydroisoquinolin-1(2H)-one acetate] | > 1000 | 0.1 to 10 |
| C[Si](C)(O)c1ccc(-c2cc(-c3ccc4c(c3)CCNC4=O)c(N)nc2F)cc1 [I-28, 6-(2-amino-6-fluoro-5-(4-(hydroxydimethylsilyl)phenyl)pyridin-3-yl)-3,4-dihydroisoquinolin-1(2H)-one] | > 1000 | 11 to 100 |
| COCCN1CCN(c2ccc(-c3cc(-c4ccc5c(c4)CCNC5=O)c(N)nc3F)cc2)CC1 [I-29, 6-(2-amino-6-fluoro-5-(4-(4-(2-methoxyethyl)piperazin-1-yl)phenyl)pyridin-3-yl)-3,4-dihydroisoquinolin-1(2H)-one] | > 1000 | 0.1 to 10 |
| Nc1nc(F)c(-c2ccc(C3CCNCC3)cc2)cc1-c1ccc2c(c1)CCNC2=O [I-30, 6-(2-amino-6-fluoro-5-(4-(piperidin-4-yl)phenyl)pyridin-3-yl)-3,4-dihydroisoquinolin-1(2H)-one] | > 1000 | 0.1 to 10 |
| CN1CCN(c2ccc(-c3cc(-c4ccc5c(c4)CCNC5=O)c(N)nc3F)cc2)C=N1 [I-31, 6-(2-amino-6-fluoro-5-(4-(1-methyl-5,6-dihydro-1,2,4-triazin-4(1H)-yl)phenyl)pyridin-3-yl)-3,4-dihydroisoquinolin-1(2H)-one] | > 1000 | 0.1 to 10 |
| CN1CCN(c2ccc(-c3cc(-c4ccc5c(c4)CNC5=O)c(N)nc3F)cc2)CC1 [I-32, 5-(2-amino-6-fluoro-5-(4-(4-methylpiperazin-1-yl)phenyl)pyridin-3-yl)isoindolin-1-one] | > 1000 | 11 to 100 |
| CN1CCN(c2ccc(-c3cc(-c4ccc5c(c4)C(C)(C)NC5=O)c(N)nc3F)cc2)CC1 [I-33, 5-(2-amino-6-fluoro-5-(4-(4-Methylpiperazin-1-yl)phenyl)pyridin-3-yl)-3,3-dimethylisoindolin-1-one] | > 1000 | 0.1 to 10 |
| CC(=O)N1CCC(Oc2ccc(-c3cc(-c4ccc5c(c4)CCNC5=O)c(N)nc3F)cc2)CC1 [I-34, 6-(5-(4-((1-acetylpiperidin-4-yl)oxy)phenyl)-2-amino-6-fluoropyridin-3-yl)-3,4-dihydroisoquinolin-1(2H)-one] | > 1000 | 0.1 to 10 |
| Nc1nc(F)c(-c2ccc(OC3CCOCC3)cc2)cc1-c1ccc2c(c1)CCNC2=O [I-35, 6-(2-amino-6-fluoro-5-(4-((tetrahydro-2H-pyran-4-yl)oxy)phenyl)pyridin-3-yl)-3,4-dihydroisoquinolin-1(2H)-one] | > 1000 | 0.1 to 10 |
| CN1C[C@H]2C[C@@]2(c2ccc(-c3cc(-c4ccc5c(c4)C(C)(C)NC5=O)c(N)nc3F)cc2)C1 [I-36, 5-(2-amino-6-fluoro-5-(4-((1R,5S)-3-methyl-3-azabicyclo[3.1.0]hexan-1-yl)phenyl)pyridin-3-yl)-3,3-dimethylisoindolin-1-one] | > 1000 | 0.1 to 10 |
| CN1CCN(c2ccc(-c3cc(-c4ccc5c(c4)C(C)(C)NC5=O)c(N)nc3F)cc2)C=N1 [I-37, 5-(2-amino-6-fluoro-5-(4-(1-methyl-5,6-dihydro-1,2,4-triazin-4(1H)-yl)phenyl)pyridin-3-yl)-3,3-dimethylisoindolin-1-one 2,2,2-trifluoroacetate] | > 1000 | 11 to 100 |
| Nc1nc(F)c(-c2ccc(N3CCN4CCOC[C@H]4C3)cc2)cc1-c1ccc2c(c1)CCNC2=O [I-38, (R)-6-(2-amino-6-fluoro-5-(4-(hexahydropyrazino[2,1-c][1,4]oxazin-8(1H)-yl)phenyl)pyridin-3-yl)-3,4-dihydroisoquinolin-1(2H)-one] | > 1000 | 0.1 to 10 |
| Nc1nc(F)c(-c2ccc(N3CCN4CCOC[C@@H]4C3)cc2)cc1-c1ccc2c(c1)CCNC2=O [I-39, (S)-6-(2-amino-6-fluoro-5-(4-(hexahydropyrazino[2,1-c][1,4]oxazin-8(1H)-yl)phenyl)pyridin-3-yl)-3,4-dihydroisoquinolin-1(2H)-one] | > 1000 | 0.1 to 10 |
| CN1CCN(c2ccc(-c3cc(-c4ccc5c(c4)CCNC5=O)c(N)nc3F)cc2F)CC1 [I-40, 6-(2-amino-6-fluoro-5-(3-fluoro-4-(4-methylpiperazin-1-yl)phenyl)pyridin-3-yl)-3,4-dihydroisoquinolin-1(2H)-one] | > 1000 | 0.1 to 10 |
| CCN1CCN(c2ccc(-c3cc(-c4ccc5c(c4)CCNC5=O)c(N)nc3F)cc2)CC1 [I-41, 6-(2-amino-5-(4-(4-ethylpiperazin-1-yl)phenyl)-6-fluoropyridin-3-yl)-3,4-dihydroisoquinolin-1(2H)-one] | > 1000 | 0.1 to 10 |
| CC(C)N1CCN(c2ccc(-c3cc(-c4ccc5c(c4)CCNC5=O)c(N)nc3F)cc2)CC1 [I-42, 6-(2-amino-6-fluoro-5-(4-(4-isopropylpiperazin-1-yl)phenyl)pyridin-3-yl)-3,4-dihydroisoquinolin-1(2H)-one] | > 1000 | 0.1 to 10 |
| Nc1nc(F)c(-c2ccc(C3CCN(CC(F)F)CC3)cc2)cc1-c1ccc2c(c1)CCNC2=O [I-43, 6-(2-amino-5-(4-(1-(2,2-difluoroethyl)piperidin-4-yl)phenyl)-6-fluoropyridin-3-yl)-3,4-dihydroisoquinolin-1(2H)-one] | > 1000 | 0.1 to 10 |
| CN1CCC(Oc2ccc(-c3cc(-c4ccc5c(c4)CCNC5=O)c(N)nc3F)cc2)CC1 [I-44, 6-(2-amino-6-fluoro-5-(4-((1-methylpiperidin-4-yl)oxy)phenyl)pyridin-3-yl)-3,4-dihydroisoquinolin-1(2H)-one] | > 1000 | 0.1 to 10 |
| CN(C)CCN(C)c1ccc(-c2cc(-c3ccc4c(c3)CCNC4=O)c(N)nc2F)cc1 [I-45, 6-(2-amino-5-(4-((2-(dimethylamino)ethyl)(methyl)amino)phenyl)-6-fluoropyridin-3-yl)-3,4-dihydroisoquinolin-1(2H)-one] | > 1000 | 0.1 to 10 |
| C[C@@H]1CCCN1c1ccc(-c2cc(-c3ccc4c(c3)CCNC4=O)c(N)nc2F)cc1 [I-46, (R)-6-(2-amino-6-fluoro-5-(4-(2-methylpyrrolidin-1-yl)phenyl)pyridin-3-yl)-3,4-dihydroisoquinolin-1(2H)-one] | > 1000 | 11 to 100 |
| C[C@@H]1CCCN1c1ccc(-c2cc(-c3ccc4c(c3)CCNC4=O)c(N)nc2F)c(F)c1 [I-47, (R)-6-(2-amino-6-fluoro-5-(2-fluoro-4-(2-methylpyrrolidin-1-yl)phenyl)pyridin-3-yl)-3,4-dihydroisoquinolin-1(2H)-one] | > 1000 | 11 to 100 |
